Measurements from patent publication US20110212908A1, “TOPICAL COMPOSITIONS AND THE USE THEREOF” (priority 2005, published 2011).

Tested on: Pseudomonas
Assay: Inhibition of adhesion of Pseudomonas strains P1, P2, P3 on canine corneocytes
Format: cell-based
Conditions: monosaccharides at 0.05% and 0.1% in PBS, vs positive control without monosaccharides (100%)
Protocol: A study comparing the inhibition, by monosaccharides, of the adhesion of three different strains of Pseudomonas, P1, P2, P3, was conducted on canine corneocytes. The three monosaccharides studied are respectively D-galactose, D-mannose and L-rhamnose.
The three strains of Psedomonas were taken from dogs with infectious otitis. Corneocytes were taken from six different healthy dogs using D-squame™-brand adhesive pads, sold by the CuDerm™ Company.
Bacterial suspensions were produced, each containing one of the three strains P1, P2 or P3, and PBS (phosphate-buffered saline) with or without monosaccharides at two concentrations (0.05% and 0.1%). These suspensions were each placed on a corneocyte layer. These layers were then incubated in a humidity chamber. After incubation, the corneocytes were washed and stained. The adherent Pseudomonas were then quantified by computer-assisted image analysis.
The percentage of adherence of the strains in the presence of monosaccharides was then calculated with respect to the percentage of adherence of the strains without monosaccharides (positive control).
The adherence percentages were compared for the three strains P1 to P3 with respect to the positive control (100%).

Compound | mean inhibition percentage for the three Pseudomonas strains
O=C[C@H](O)[C@@H](O)[C@@H](O)[C@H](O)CO [D-galactose] | 25.6%
O=C[C@@H](O)[C@@H](O)[C@H](O)[C@H](O)CO [D-mannose] | 19.4%
C[C@H](O)[C@H](O)[C@@H](O)[C@@H](O)C=O [L-rhamnose] | 30.8%
